Patent US20250074891A1 (Anaxis Pharma Pty Ltd., priority 2021, published 2025)

What was measured:
Conditions in all cases: Table 35
MLKL (full length) = MLKL (full length) (Homo sapiens (Human), UniProt Q8NB16); experiment: KINOMEscan binding assay, MLKL (full length)
Experimental: (§1) Kinase assays. For most assays, kinase-tagged T7 phage strains were grown in parallel in 24-well blocks in an E. coli host derived from the BL21 strain. E. coli were grown to log-phase and infected with T7 phage from a frozen stock (multiplicity of infection=0.4) and incubated with shaking at 32° C. until lysis (90-150 minutes).
(§2) The Hill Slope was set to −1.

RIP1 = RIP1 (Homo sapiens (Human), UniProt Q13546); experiment: KINOMEscan binding assay, RIP1
RIP1, sequence (Q13546 whole entry): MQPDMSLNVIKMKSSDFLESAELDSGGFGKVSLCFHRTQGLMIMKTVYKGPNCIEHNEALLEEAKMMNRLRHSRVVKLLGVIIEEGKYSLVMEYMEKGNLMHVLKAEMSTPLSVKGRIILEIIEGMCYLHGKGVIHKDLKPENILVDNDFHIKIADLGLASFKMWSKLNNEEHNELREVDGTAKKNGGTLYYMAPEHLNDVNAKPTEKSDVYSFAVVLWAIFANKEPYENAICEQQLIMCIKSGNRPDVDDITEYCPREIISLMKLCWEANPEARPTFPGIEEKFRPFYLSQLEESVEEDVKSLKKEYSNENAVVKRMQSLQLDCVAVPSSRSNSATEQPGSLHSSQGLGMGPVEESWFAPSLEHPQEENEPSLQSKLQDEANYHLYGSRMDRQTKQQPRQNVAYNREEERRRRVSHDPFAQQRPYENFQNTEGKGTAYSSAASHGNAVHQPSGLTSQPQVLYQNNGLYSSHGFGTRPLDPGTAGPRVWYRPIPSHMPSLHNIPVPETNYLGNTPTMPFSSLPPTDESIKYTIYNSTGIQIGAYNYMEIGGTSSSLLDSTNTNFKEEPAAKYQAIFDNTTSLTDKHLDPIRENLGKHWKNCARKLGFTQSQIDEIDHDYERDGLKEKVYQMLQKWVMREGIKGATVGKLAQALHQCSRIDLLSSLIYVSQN

RIP3 = RIP3 (Homo sapiens (Human), UniProt Q9Y572); experiment: KINOMEscan binding assay, RIP3
RIP3, sequence (Q9Y572 whole entry): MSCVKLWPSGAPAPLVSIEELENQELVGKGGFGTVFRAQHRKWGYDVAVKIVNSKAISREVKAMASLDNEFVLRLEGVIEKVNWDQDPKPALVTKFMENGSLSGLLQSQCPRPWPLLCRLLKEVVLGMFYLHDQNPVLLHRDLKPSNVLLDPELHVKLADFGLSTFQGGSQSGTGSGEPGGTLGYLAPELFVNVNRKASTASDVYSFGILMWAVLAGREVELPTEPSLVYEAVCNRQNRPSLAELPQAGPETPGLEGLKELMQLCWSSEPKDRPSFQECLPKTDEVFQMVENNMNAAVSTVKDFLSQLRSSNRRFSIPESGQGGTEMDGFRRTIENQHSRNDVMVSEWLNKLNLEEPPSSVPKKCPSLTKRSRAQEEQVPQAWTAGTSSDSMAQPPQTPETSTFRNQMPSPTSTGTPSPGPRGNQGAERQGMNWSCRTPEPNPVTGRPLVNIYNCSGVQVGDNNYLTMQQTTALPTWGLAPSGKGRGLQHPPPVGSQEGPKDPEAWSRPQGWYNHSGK
Experimental: as §1, §2

MLKL (full length), sequence (Q8NB16 whole entry): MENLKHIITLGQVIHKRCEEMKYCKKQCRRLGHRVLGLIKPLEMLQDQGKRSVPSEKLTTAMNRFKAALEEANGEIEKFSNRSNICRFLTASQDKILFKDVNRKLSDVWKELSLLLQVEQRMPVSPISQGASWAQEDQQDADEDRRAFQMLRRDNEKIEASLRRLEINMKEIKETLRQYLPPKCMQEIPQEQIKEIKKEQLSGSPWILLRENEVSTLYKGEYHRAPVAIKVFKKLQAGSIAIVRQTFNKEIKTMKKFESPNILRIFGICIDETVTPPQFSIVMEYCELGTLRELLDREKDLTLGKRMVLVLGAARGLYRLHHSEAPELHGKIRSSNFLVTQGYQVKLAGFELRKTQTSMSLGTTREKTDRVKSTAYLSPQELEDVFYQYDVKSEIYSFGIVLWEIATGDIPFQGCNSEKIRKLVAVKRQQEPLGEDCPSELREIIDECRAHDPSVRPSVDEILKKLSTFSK

Row | Kd (MLKL (full length)) | Kd (RIP1) | Kd (RIP3) | Structure (SMILES)
1 | < 0.01 µM | > 30 µM | > 30 µM | CCS(=O)(=O)Nc1ccc(-c2n[nH]c(Nc3cnccn3)c2C(N)=O)cc1OCc1ccc(F)cc1 [Compound 62, 3-(4-(ethylsulfonamido)-3-((4-fluorobenzyl)oxy)phenyl) 5-(pyrazin-2-ylamino)-1H pyrazole-4-carboxamide]
2 | < 0.01 µM | > 30 µM | > 30 µM | NC(=O)c1c(-c2ccc(NS(=O)(=O)C(F)F)cc2)n[nH]c1Nc1cnccn1 [Compound 63, 3-(4-((difluoromethyl)sulfonamido)phenyl)-5-(pyrazin-2-ylamino)-1H-pyrazole-4-carboxamide]
3 | < 0.01 µM | > 30 µM | > 30 µM | NC(=O)c1c(-c2ccc(NS(=O)(=O)C3CC3)cc2)n[nH]c1Nc1cnccn1 [Compound 68, 3-(4-(cyclopropanesulfonamido)phenyl)-5-(pyrazin-2-ylamino)-1H-pyrazole-4-carboxamide]
4 | < 0.01 µM | > 30 µM | > 30 µM | CCS(=O)(=O)Nc1ccc(-c2n[nH]c(Nc3cc4ccccc4cn3)c2C(N)=O)cc1 [Compound 87, 3-(4-(ethylsulfonamido)phenyl)-5-(isoquinolin-3-ylamino)-1H-pyrazole-4-carboxamide]
5 | < 0.01 µM | > 30 µM | > 30 µM | CCS(=O)(=O)Nc1ccc(-c2n[nH]c(Nc3cncc(OC)n3)c2C(N)=O)cc1 [Compound 99, 3-(4-(ethylsulfonamido)phenyl)-5-((6-methoxypyrazin-2-yl)amino)-1H-pyrazole-4-carboxamide]
6 | < 0.01 µM | > 30 µM | > 30 µM | CCS(=O)(=O)Nc1ccc(-c2n[nH]c(Nc3cnn(C)c3)c2C(N)=O)cc1 [Compound 100, 3-(4-(ethylsulfonamido)phenyl)-5-((1-methyl-1H-pyrazol-4-yl)amino)-1H-pyrazole-4-carboxamide]
7 | < 0.01 µM | > 30 µM | > 30 µM | CCS(=O)(=O)Nc1ccc(-c2n[nH]c(Nc3cnc(C)cn3)c2C(N)=O)cc1 [Compound 101, 3-(4-(ethylsulfonamido)phenyl)-5-((5-methylpyrazin-2-yl)amino)-1H-pyrazole-4-carboxamide]
8 | < 0.01 µM | > 30 µM | > 30 µM | CCS(=O)(=O)Nc1ccc(-c2n[nH]c(Nc3ccc(C#N)cc3)c2C(N)=O)cc1 [Compound 102, 5-((4-cyanophenyl)amino)-3-(4-(ethylsulfonamido)phenyl)-1H-pyrazole-4-carboxamide]
9 | < 0.01 µM | > 30 µM | > 30 µM | CCOc1cc(Nc2[nH]nc(-c3ccc(NS(=O)(=O)CC)cc3)c2C(N)=O)ccn1 [Compound 105, 5-((2-ethoxypyridin-4-yl)amino)-3-(4-(ethylsulfonamido)phenyl)-1H-pyrazole-4-carboxamide]
10 | < 0.01 µM | > 30 µM | > 30 µM | COCCOc1cc(Nc2[nH]nc(-c3ccc(NS(=O)(=O)CC#N)cc3)c2C(N)=O)ccn1 [Compound 110, 3-(4-((cyanomethyl)sulfonamido)phenyl)-5-((2-(2-methoxyethoxy)pyridin-4-yl)amino)-1H-pyrazole-4-carboxamide]
11 | < 0.01 µM | > 30 µM | > 30 µM | CCS(=O)(=O)Nc1ccc(-c2n[nH]c(Nc3cc(C)nc(C)c3)c2C(N)=O)cc1 [Compound 112, 5-((2,6-dimethylpyridin-4-yl)amino)-3-(4-(ethylsulfonamido)phenyl)-1H-pyrazole-4-carboxamide]
12 | < 0.01 µM | > 30 µM | > 30 µM | CCS(=O)(=O)Nc1ccc(-c2n[nH]c(Nc3ccnc(OC)n3)c2C(N)=O)cc1 [Compound 123, 3-(4-(ethylsulfonamido)phenyl)-5-((2-methoxypyrimidin-4-yl)amino)-1H-pyrazole-4-carboxamide]
13 | < 0.01 µM | > 30 µM | > 30 µM | CCS(=O)(=O)Nc1ccc(-c2n[nH]c(Nc3ccccc3)c2C(N)=O)cc1 [Compound 124, 3-(4-(ethylsulfonamido)phenyl)-5-(phenylamino)-1H-pyrazole-4-carboxamide]
14 | < 0.01 µM | > 30 µM | > 30 µM | NC(=O)c1c(-c2ccc(NS(=O)(=O)CC(F)(F)F)cc2OCc2ccc(F)cc2)n[nH]c1Nc1cnccn1 [Compound 139, 3-(2-((4-fluorobenzyl)oxy)-4-((2,2,2-trifluoroethyl)sulfonamido)phenyl)-5-(pyrazin-2-ylamino)-1H-pyrazole-4-carboxamide]
15 | < 0.01 µM | > 30 µM | > 30 µM | NC(=O)c1c(-c2ccc(NS(=O)(=O)CC(F)(F)F)cc2OCc2ccc(F)cc2)n[nH]c1Nc1cccc(C(F)(F)F)n1 [Compound 140, 3-(2-((4-fluorobenzyl)oxy)-4-((2,2,2-trifluoroethyl)sulfonamido)phenyl)-5-((6-(trifluoromethyl)pyridine-2-yl)amino)-1H-pyrazole-4-carboxamide]
16 | < 0.01 µM | > 30 µM | > 30 µM | COc1cnc(Nc2[nH]nc(-c3ccc(NS(=O)(=O)CC(F)(F)F)c(OCc4ccc(F)cc4)c3)c2C(N)=O)cn1 [Compound 143, 3-(3-((4-fluorobenzyl)oxy)-4-((2,2,2-trifluoroethyl)sulfonamido)phenyl)-5-((5-methoxypyrazin-2-yl)amino)-1H-pyrazole-4-carboxamide]
17 | < 0.01 µM | > 30 µM | > 30 µM | NC(=O)c1c(-c2ccc(NS(=O)(=O)C(F)F)cc2)n[nH]c1Nc1ccc(C(F)(F)F)cn1 [Compound 145, 3-(4-((difluoromethyl)sulfonamido)phenyl)-5-((5-(trifluoromethyl)pyridine-2-yl)amino)-1H-pyrazole-4-carboxamide]

Second part, the compound before the results:

Row | Structure (SMILES) | Kd (MLKL (full length)) | Kd (RIP1) | Kd (RIP3)
18 | CCS(=O)(=O)Nc1ccc(-c2n[nH]c(Nc3cnc4ccccc4n3)c2C(N)=O)cc1 [Compound 67, 3-(4-(ethylsulfonamido)phenyl)-5-(quinoxalin-2-ylamino)-1H-pyrazole-4-carboxamide] | < 0.01 µM | > 30 µM | > 30 µM
19 | NC(=O)c1c(-c2ccc(NS(=O)(=O)Cc3ccc(Cl)cc3)cc2)n[nH]c1Nc1cnccn1 [Compound 70, 3-(4-(((4-chlorophenyl)methyl)sulfonamido)phenyl)-5-(pyrazin-2-ylamino)-1H-pyrazole-4-carboxamide] | < 0.01 µM | > 30 µM | > 30 µM
20 | CCS(=O)(=O)Nc1ccc(-c2n[nH]c(Nc3cnc(C(F)(F)F)cn3)c2C(N)=O)cc1 [Compound 75, 3-(4-ethanesulfonamidophenyl)-5-{[5-(trifluoromethyl)pyrazin-2-yl]amino}-1H-pyrazole-4-carboxamide] | < 0.01 µM | > 30 µM | > 30 µM
21 | CCS(=O)(=O)Nc1ccc(-c2n[nH]c(Nc3cnc(OC)cn3)c2C(N)=O)cc1 [Compound 90, 3-(4-(ethylsulfonamido)phenyl)-5-((5-methoxypyrazin-2-yl)amino)-1H-pyrazole-4-carboxamide] | < 0.01 µM | > 30 µM | > 30 µM
22 | CCS(=O)(=O)Nc1ccc(-c2n[nH]c(Nc3ccc(C(F)(F)F)cn3)c2C(N)=O)cc1 [Compound 93, 3-(4-(ethylsulfonamido)phenyl)-5-((5-(trifluoromethyl)pyridin-2-yl)amino)-1H-pyrazole-4-carboxamide] | < 0.01 µM | > 30 µM | > 30 µM
23 | CCS(=O)(=O)Nc1ccc(-c2n[nH]c(Nc3ccnc(C(F)(F)F)c3)c2C(N)=O)cc1 [Compound 104, 3-(4-(ethylsulfonamido)phenyl)-5-((2-(trifluoromethyl)pyridin-4-yl)amino)-1H-pyrazole-4-carboxamide] | < 0.01 µM | > 30 µM | > 30 µM
24 | CCS(=O)(=O)Nc1ccc(-c2n[nH]c(Nc3ccnc(OCC(F)F)c3)c2C(N)=O)cc1 [Compound 106, 5-((2-(2,2-difluoroethoxy)pyridin-4-yl)amino)-3-(4-(ethylsulfonamido)phenyl)-1H-pyrazole-4-carboxamide] | < 0.01 µM | > 30 µM | > 30 µM
25 | CCS(=O)(=O)Nc1ccc(-c2n[nH]c(Nc3cnccn3)c2C(N)=O)cc1 [Compound 108, 3-(4-(ethylsulfonamido)phenyl)-5-(pyrazin-2-ylamino)-1H-pyrazole-4-carboxamide] | < 0.01 µM | > 30 µM | > 30 µM
26 | CCS(=O)(=O)Nc1ccc(-c2n[nH]c(Nc3ccnc(C)c3)c2C(N)=O)cc1 [Compound 113, 3-(4-(ethylsulfonamido)phenyl)-5-((2-methylpyridin-4-yl)amino)-1H-pyrazole-4-carboxamide] | < 0.01 µM | > 30 µM | > 30 µM
27 | CCS(=O)(=O)Nc1ccc(-c2n[nH]c(Nc3cccc(C(F)(F)F)n3)c2C(N)=O)cc1 [Compound 126, 3-(4-(ethylsulfonamido)phenyl)-5-((6-(trifluoromethyl)pyridin-2-yl)amino)-1H-pyrazole-4-carboxamide] | < 0.01 µM | > 30 µM | > 30 µM
28 | NC(=O)c1c(-c2ccc(NS(=O)(=O)CC(F)(F)F)cc2)n[nH]c1Nc1cnccn1 [Compound 137, 5-(pyrazin-2-ylamino)-3-(4-((2,2,2-trifluoroethyl)sulfonamido)phenyl)-1H-pyrazole-4-carboxamide] | < 0.01 µM | > 30 µM | > 30 µM
29 | NC(=O)c1c(-c2ccc(NS(=O)(=O)CC(F)(F)F)c(OC3(c4ccc(F)cc4)CC3)c2)n[nH]c1Nc1cnccn1 [Compound 144, 3-(3-(1-(4-fluorophenyl)cyclopropoxy)-4-((2,2,2-trifluoroethyl)sulfonamido)phenyl)-5-(pyrazin-2-ylamino)-1H-pyrazole-4-carboxamide] | < 0.01 µM | > 30 µM | > 30 µM
